Laboratory results as given in US7838562B2, “Methods of inhibiting vascular permeability and apoptosis” (University of Connecticut, priority 2004, dated 2010).

Tests used:
[1] = test system: kinase activity present in HUVEC (sphingosine kinase); assay: in vitro kinase assay with total cell extract from HUVEC; type: biochemical, human; conditions: HUVEC total cell extract; 100 μM FTY720 or AAL, 20 μM sphingosine; 30 minutes
Protocol: To confirm that FTY720 and (R)-AAL are phosphorylated by endothelial cells, an in vitro kinase assay was performed with both total cell extract and conditioned medium from HUVEC. […] Cells were scraped at 4° C. with 400 μl of 25 mM HEPES pH 7.5, […], 1× protease inhibitor mixture, and disrupted by brief sonication. Cellular homogenates were centrifuged for 10 minutes, 4° C. at 20,000×g. In the kinase assay, 300 μl of conditioned medium (derived from 5×10^5 cells for 3 hours of incubation) or 10 μg of total cell extract from HUVEC were used as a source of kinase activity. […] Lipids were extracted and samples were resuspended in 50 μl of chloroform. Lipids were resolved by TLC on Silica Gel G60 using 1-butanol/acetic acid/water (60/20/20 volume/volume) buffer and quantified with a PhosphorImager (Molecular Dynamics).

phospho-Akt = assay: Western blot of Akt phosphorylation in HUVEC; type: cell-based, human; conditions: 5 minute stimulation
Source text: (§1) Endothelial cell morphogenesis, a phenomenon that requires endothelial cell migration, survival and adherens junction assembly, is mediated by the ligand-dependent activation of S1P1 and S1P3 receptors. […] The effects of FTY720-P and analogs on Akt and ERK phosphorylation in HUVEC were studied in a Western blot analysis. Confluent cultures of HUVEC cells were serum starved for two hours in 0.1% ffa-BSA M199 before treatments. Then, they were washed with ice-cold phosphate buffered saline (PBS) containing 1 mM sodium fluoride and 1 mM sodium orthovanadate and homogenized in radioimmunoprecipitation assay buffer (0.1% sodium dodecyl sulfate (SDS), 0.5% sodium deoxycholate, 1% NP-40, 1 mM sodium orthovanadate, 50 mM β-glycerophosphate and 1× protease inhibitor cocktail). Samples were centrifuged 10,000×g for 10 minutes, and protein concentrations of supernatants were determined by Bradford assay (BioRad Protein Dye Reagent). Equal amounts of protein were separated on a 10% polyacrylamide gel and blotted to a nitrocellulose membrane. Immunoblot analysis was performed using Phospho-Akt, Akt, phospho-ERK1/2 or ERK-1/2 antibodies.

phospho-ERK-1/2 = assay: Western blot of ERK-1/2 phosphorylation in HUVEC; type: cell-based, human; conditions: 5 minute stimulation
Source text: as §1

VE-cadherin = VE-cadherin localization by immunofluorescence in HUVEC; type: cell-based, human; conditions: 30 minutes; 10 nM (S1P 100 nM)
Protocol: The effects of FTY720-P and (R)-AFD on the localization of VE-cadherin were studied using immunofluorescence analysis. In this study, 2×10^5 cells were plated in 35 millimeter glass bottom petri dishes. Three days later, the cells were washed and serum starved for 3 hours before treatments. Then, the cells were washed with ice-cold PBS, fixed, and immunofluorescence analysis with VE-cadherin antibody was conducted (1 μg/ml Santa Cruz). The primary antibody staining was visualized with Rhodamine-conjugated goat anti-mouse (1:1000, Cappel) IgG. Confocal microscopy was conducted on a Zeiss LSM 510 laser-scanning confocal microscope. Rhodamine fluorescence was excited using a 543 nm Helium/Neon laser and emitted fluorescence was detected with a […] long-pass filter.

[2] = test system: VEGF-induced vascular permeability; assay: mouse ear microvascular permeability assay (VEGF-induced); type: in vivo, FVB/N mice; conditions: mice, single oral administration (gavage, 50 μg) 5 hours prior
Protocol: The role of plasma borne FTY720-P or (R)-AFD in the regulation of vascular permeability was tested in vivo. In order to test this possibility, an in vivo vascular permeability model was used in FTY720, (R)-AFD or (S)-AAL-pretreated mice. […] Five hours post-gavage, animals were anesthetized with 2% Avertin™ (0.5 cc/20 g) and infused through the tail vein with 100 μl FITC-dextran (5 mg/ml, 165 kDa). Animals were placed on a warming table under a fluorescent dissecting microscope (Zeiss STV11, Zeiss, Inc.) and the central vessels in the ear were imaged. Control saline or mouse vascular endothelial growth factor (mVEGF, 10 ng/ml) was injected subdermally into the middle ear using a 30 gauge needle (30 μl). Ear vasculature was then imaged with fixed exposure times in a stationary position from 5 minutes to 120 minutes post-injection. Fluorescence images were then quantified using pixel-based threshold in ImageProPlus (Media Cybernetics, Inc.) and quantified.

SK2 = molecular target: T1, SK2 (Mus musculus, UniProt Q9JIA7); conditions: SK2-[…]T; 100 μM FTY720 or (R)-AAL, 20 μM sphingosine
T1 sequence (Q9JIA7 1-617): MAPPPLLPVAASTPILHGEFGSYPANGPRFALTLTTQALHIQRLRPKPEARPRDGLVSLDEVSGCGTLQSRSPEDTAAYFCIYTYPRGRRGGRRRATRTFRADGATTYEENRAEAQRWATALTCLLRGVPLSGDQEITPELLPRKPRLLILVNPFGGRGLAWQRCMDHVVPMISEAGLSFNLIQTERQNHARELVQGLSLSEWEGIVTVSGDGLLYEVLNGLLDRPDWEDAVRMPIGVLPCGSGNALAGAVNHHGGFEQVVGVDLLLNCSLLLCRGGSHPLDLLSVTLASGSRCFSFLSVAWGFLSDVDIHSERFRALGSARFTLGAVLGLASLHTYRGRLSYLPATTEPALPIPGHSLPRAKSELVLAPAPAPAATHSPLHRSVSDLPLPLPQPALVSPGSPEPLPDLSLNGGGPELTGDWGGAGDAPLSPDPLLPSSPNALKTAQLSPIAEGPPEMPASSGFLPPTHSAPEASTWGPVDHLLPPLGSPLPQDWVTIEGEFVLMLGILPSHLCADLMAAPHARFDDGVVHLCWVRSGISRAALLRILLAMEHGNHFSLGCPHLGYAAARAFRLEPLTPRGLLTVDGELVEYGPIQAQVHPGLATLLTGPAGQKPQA

HUVEC = HUVEC migration (96 well chemotaxis microchamber)
SK1 = SK1 (Mus musculus, UniProt Q8CI15); conditions: SK1-293T; 20 μM sphingosine
Chain of SK1 (Q8CI15 1-388 isoform Q8CI15-2): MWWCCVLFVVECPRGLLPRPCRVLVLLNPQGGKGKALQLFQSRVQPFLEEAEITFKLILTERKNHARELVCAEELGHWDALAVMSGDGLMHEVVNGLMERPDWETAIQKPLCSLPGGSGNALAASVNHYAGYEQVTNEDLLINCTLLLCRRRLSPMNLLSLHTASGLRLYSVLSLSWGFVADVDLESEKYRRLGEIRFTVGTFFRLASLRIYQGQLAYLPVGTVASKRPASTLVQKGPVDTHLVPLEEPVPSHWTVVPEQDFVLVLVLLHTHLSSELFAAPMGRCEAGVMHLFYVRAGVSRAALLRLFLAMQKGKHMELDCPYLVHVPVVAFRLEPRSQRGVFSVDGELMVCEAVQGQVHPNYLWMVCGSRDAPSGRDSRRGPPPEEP

Row | specific activity (phosphorylation of the substrate) (SK1) [pmol/mg/min] | SMILES | specific activity (phosphorylation of the substrate) [1] [pmol/mg/min] | Akt phosphorylation (in words) (phospho-Akt) | ERK-1/2 phosphorylation (in words) (phospho-ERK-1/2) | VE-cadherin localization at cell-cell contact regions / translocation to adherens junctions (VE-cadherin) | inhibition of vascular permeability induced by VEGF [2] | specific activity (phosphorylation of the substrate) (SK2) [pmol/min/mg] | migration induced by conditioned medium (HUVEC; compound incubated with HUVEC for 3 hours, conditioned medium used as chemoattractant) | induction of endothelial cell migration (HUVEC; compound used directly as chemoattractant, 4 hours)
1 |  | CCCCCCCCc1ccc(CCC(N)(CO)CO)cc1 [FTY720, 2-amino-2-[2-(4-octaphenyl)ethyl]propane-1,3 diol, reference compound] | 3.85 ± 0.75 | did not induce phospho-Akt or phospho-ERK-1/2 levels | did not induce phospho-Akt or phospho-ERK-1/2 levels | did not induce VE-cadherin translocation to the adherens junctions | profoundly suppressed vascular permeability induced by VEGF | 41.6 | activated into potent chemoattractants for endothelial cells | Neither FTY720 nor its structural analog (R)-AAL induced endothelial cell migration
2 | 48.1 | CCCCCCCCCCCCC/C=C/[C@@H](O)[C@@H](N)CO [sphingosine, Sphingosine] | 75.7 ± 6 |  |  |  |  | 319.9 |  | 
